Reference: patent US5399697A, “N,N',N'-trisubstituted-5-bisaminomethylene-1,3-dioxane-4,6-dione inhibitors of acyl-CoA:cholesterol-acyl transferase” (American Home Products Corporation, priority 1993, dated 1995)
Where two headings read alike, the source gives them in different places.

Tested on: acyl-coenzyme A: cholesterol acyltransferase
Experiment: Inhibition of ACAT / intracellular cholesterol esterification in vitro (procedure of Ross et al.)
Type: cell-based

SMILES	% Inhibition (25 μM) [%]	IC50 (read-out: IC50) [µM]	further results
CCCCCC(C)N(Cc1ccc(OCC(C)C)cc1)C(Nc1ccc(C)cc1C)=C1C(=O)OC(C)(C)OC1=O (centres unmarked) [Compound 68]	98	0.28	
COc1ccc(NC(=C2C(=O)OC(C)(C)OC2=O)N(Cc2ccc(CC(C)(C)C)cc2)CC2(c3ccccc3)CCCC2)c(OC)c1 [Compound 10, 5-[[(2,4-Dimethoxyphenyl)amino][[[4-(2,2-dimethylpropyl)phenyl]methyl)][(1-penylcyclo-pentylmethyl]amino]methylene]-2,2-dimethyl-3-dioxane-4,6-dione]	97	0.29	
CCCCCC(C)N(Cc1ccc(OCC(C)C)cc1)C(Nc1ccc(N(C)C)cc1)=C1C(=O)OC(C)(C)OC1=O (centres unmarked) [Compound 63]	99	0.09	
CCCCCC(C)N(Cc1ccc(CCC(C)C)cc1)C(Nc1ccc(OC)cc1OC)=C1C(=O)OC(C)(C)OC1=O (centres unmarked) [Compound 56, 5-[[(2,4-Dimethoxyphenyl)amino][[[4-(3-methylbutyl)phenyl]methyl](1-methylhexyl)amino]-methylene]-2,2-dimethyl-1,3-dioxane-4,6-dione]	97	1.4	
CCCCCCCN(Cc1ccc(C(C)(C)C)cc1)C(Nc1ccc(C(F)(F)F)cc1)=C1C(=O)OC(C)(C)OC1=O [Compound 30, 5-[[[[4-(1,1-Dimethylethyl)phenyl]methyl]heptylamino][[4-(trifluoromethyl)phenyl]amino]-methylene]-2,2-dimethyl-1,3-dioxane-4,6-dione]	42		
CCCCCCN(CCCCCC)C(Nc1ccc(OC)cc1OC)=C1C(=O)OC(C)(C)OC1=O [Compound 1, 5-[(Dihexylamino)[(2,4-dimethoxyphenyl)amino]methylene]-2,2-dimethyl-1,3-dioxane-4,6-dione]			% Inhibition (50 μM): 65%
CC(C)Cc1ccc(CN(C(Nc2ccc(N(C)C)cc2)=C2C(=O)OC(C)(C)OC2=O)C2CCN(Cc3ccccc3)CC2)cc1 [Compound 49, 5-[[[4-(Dimethylamino)phenyl]amino][[[4-(2-methylpropyl)phenyl]methyl][1-(phenylmethyl)-4-piperidinyl]amino]methylene]-2,2-dimethyl-1,3-dioxane-4,6-dione]	80	4.5	
CCCCCC(C)N(Cc1ccc(CC(C)C)cc1)C(Nc1cc(C(C)(C)C)c(O)c(C(C)(C)C)c1)=C1C(=O)OC(C)(C)OC1=O (centres unmarked) [Compound 13]	99	0.19	
CCCCC(CC)N(Cc1ccc(CC(C)(C)C)cc1)C(Nc1ccc(OC)cc1OC)=C1C(=O)OC(C)(C)OC1=O (centres unmarked) [Compound 60, 5-[[(2,4-Dimethoxyphenyl)amino][[[4-(2,2-dimethylpropyl)phenyl]methyl](1-ethylpentyl)amino]-methylene]-2,2-dimethyl-1,3-dioxane-4,6-dione]	99	0.54	
CCCCCCCN(Cc1ccc(CCCCC)cc1)C(Nc1ccc(C(F)(F)F)cc1)=C1C(=O)OC(C)(C)OC1=O [Compound 17, 5-[[[4-(Trifluoromethyl)phenyl]amino][heptyl[(4-pentylphenyl)methyl]amino]methylene]-2,2-dimethyl-1,3-dioxane-4,6-dione]	72		
CCCCCC(C)N(Cc1ccc(C(C)(C)C)cc1)C(Nc1cc(OC)c(OC)c(OC)c1)=C1C(=O)OC(C)(C)OC1=O (centres unmarked) [Compound 20]	96	0.77	
CCCCCCCN(Cc1ccc(C(C)(C)C)cc1)C(Nc1ccc(F)cc1F)=C1C(=O)OC(C)(C)OC1=O [Compound 15]			% Inhibition (50 μM): 63%
CCCCCC(C)N(Cc1ccc(CCC(C)C)cc1)C(Nc1ccc(N(C)C)cc1C)=C1C(=O)OC(C)(C)OC1=O (centres unmarked) [Compound 61]	98	0.16	
COc1ccc(NC(=C2C(=O)OC(C)(C)OC2=O)N(Cc2ccc(CC(C)C)cc2)C(C)CN2CCOCC2)c(OC)c1 (centres unmarked) [Compound 50, 5-[[(2,4-Dimethoxyphenyl)amino][[1-methyl-2-(4-morpholinyl)ethyl][[4-(2-methylpropyl)-phenyl]methyl]amino]methylene]-2,2-dimethyl-1,3-dioxane-4,6-dione]	74		
CN(C(Nc1cc(C(C)(C)C)c(O)c(C(C)(C)C)c1)=C1C(=O)OC(C)(C)OC1=O)c1ccccn1 [Compound 83]			% Inhibition (50 μM): 86%
CCCCCCCN(Cc1ccc(C(C)(C)C)cc1)C(Nc1c(C)cc(N(C)C)cc1C)=C1C(=O)OC(C)(C)OC1=O [Compound 16, 5-[[[4-(Dimethylamino)-2,6-dimethylphenyl]amino][[[4-(1,1-dimethylethyl)phenyl]methyl]heptylamino]methylene]-2,2-dimethyl-1,3-dioxane-4,6-dione]	84	0.98	
CCCCCCCN(Cc1ccc(C(C)(C)C)cc1)C(Nc1ccc(OCCCC)cc1)=C1C(=O)OC(C)(C)OC1=O [Compound 19]	98	2.4	
CCCCCCCN(Cc1ccc(C(C)(C)C)cc1)C(Nc1cc(OC)c(OC)c(OC)c1)=C1C(=O)OC(C)(C)OC1=O [Compound 69]	98	2.8	

SMILES	% Inhibition (25 μM) [%]	IC50 (read-out: IC50) [µM]	further results
COc1ccc(NC(=C2C(=O)OC(C)(C)OC2=O)N(Cc2ccc(CC(C)C)cc2)[C@@H](CO[Si](C)(C)C(C)(C)C)Cc2ccccc2)c(OC)c1 [Compound 11]	98		IC50: 2.8 µM
CCCCC(CC)N(Cc1ccc(CC(C)(C)C)cc1)C(Nc1ccc(N(C)C)cc1)=C1C(=O)OC(C)(C)OC1=O (centres unmarked) [Compound 62]	99	0.64	
CCCCCCCN(Cc1ccc(C(C)(C)C)cc1)C(Nc1ccc(F)cc1)=C1C(=O)OC(C)(C)OC1=O [Compound 67]		4.5	% Inhibition (50 μM): 89%
COc1ccc(NC(=C2C(=O)OC(C)(C)OC2=O)N(Cc2ccc(CC(C)C)cc2)[C@@H](CO)CC(C)C)c(OC)c1 [Compound 74, (R)-5-[[(2,4-Dimethoxyphenyl)amino][[1-(hydroxymethyl)-3-methylbutyl][[4-(2-methylpropyl)-phenyl]methyl]amino]methylene]-2,2-dimethyl-1,3-dioxane-4,6,-dione]		0.29	% Inhibition (concentration not given): 97%
CCCCCC(C)N(Cc1ccc(CCC(C)C)cc1)C(Nc1ccc(N(C)C)cc1)=C1C(=O)OC(C)(C)OC1=O (centres unmarked) [Compound 57, 5-[[[4-(Dimethylamino)phenyl]amino][[[4-(3-methylbutyl)phenyl]methyl](1-methylhexyl)-amino]methylene]-2,2-dimethyl-1,3-dioxane-4,6-dione]	96	0.41	
CCCCc1ccc(CN(C(Nc2ccc(OC)cc2OC)=C2C(=O)OC(C)(C)OC2=O)C(C)CCCC(C)(C)O)cc1 (centres unmarked) [Compound 44, 5-[[[(4-Butylphenyl)methyl](5-hydroxy-1,5-dimethylhexyl)amino][(2,4-dimethoxyphenyl)-amino]methylene]-2,2-dimethyl-1,3-dioxane-4,6-dione]	82	15	
CC1(C)OC(=O)C(=C(Nc2cccnc2)Nc2cc(C(C)(C)C)c(O)c(C(C)(C)C)c2)C(=O)O1 [Compound 82]			% Inhibition (50 μM): 94%
CCCCCCCN(Cc1ccc(C(C)(C)C)cc1)C(Nc1ccc(OCc2ccccc2)cc1)=C1C(=O)OC(C)(C)OC1=O [Compound 26]	92	0.92	
CCCCCCCC/C=C\CCCCCCCCN(Cc1ccc(C(C)(C)C)cc1)C(Nc1ccc(OC)cc1OC)=C1C(=O)OC(C)(C)OC1=O [Compound 70, 5-[[(2,4-Dimethoxyphenyl)amino][[[4-(1,1-dimethylethyl)phenyl]methyl]((Z)-9-octadecenyl)-amino]methylene]-2,2-dimethyl-1,3-dioxane-2,4-dione]	24		
COc1ccc(NC(NCC2(c3ccccc3)CCCC2)=C2C(=O)OC(C)(C)OC2=O)c(OC)c1 [Compound 9, 5-[[(2,4-Dimethoxyphenyl)amino][[(1-phenylcyclopentyl)methyl]amino]methylene]-2,2-dimethyl-1,3-dioxane-4,6-dione]	98	5.6	
CC(C)Cc1ccc(CN(C(Nc2ccc(N(C)C)cc2)=C2C(=O)OC(C)(C)OC2=O)C(C)CN2CCOCC2)cc1 (centres unmarked) [Compound 51]	66		
CCCCCCCN(Cc1ccc(CCCCCC)cc1)C(Nc1ccc(F)cc1F)=C1C(=O)OC(C)(C)OC1=O [Compound 18, 5-[[(2,4-Difluorophenyl)amino][[(4-hexylphenyl)methyl]heptylamino]methylene]-2,2-dimethyl-1,3-dioxane-4,6-dione]			% Inhibition (50 μM): 60%
CCCCCC(C)N(Cc1ccc(OCC(C)C)cc1)C(Nc1ccc(OC)cc1OC)=C1C(=O)OC(C)(C)OC1=O (centres unmarked) [Compound 58, 5-[[(2,4-Dimethoxyphenyl)amino][(1-methylhexyl)[[4-(2-methylpropoxy)phenyl]methyl]-amino]methylene]-2,2-dimethyl-1,3-dioxane-4,6-dione]	99	0.55	
CCCCCCCN(Cc1ccc(C(C)(C)C)cc1)C(Nc1ccc(OCCCCC)cc1)=C1C(=O)OC(C)(C)OC1=O [Compound 24]	96	2.3	
CCCCCCCN(Cc1ccc(OCCC(C)C)cc1)C(Nc1cc(OC)c(OC)c(OC)c1)=C1C(=O)OC(C)(C)OC1=O [Compound 23]	85	3.5	
COc1ccc(NC(=C2C(=O)OC(C)(C)OC2=O)N(Cc2ccc(CCC(C)C)cc2)C(CC(C)C)CC(C)C)c(OC)c1 [Compound 72, 5-[[(2,4-Dimethoxyphenyl)amino][[[4-(3-methylbutyl)phenyl]methyl][-3-methyl-1-(2-methylpropyl)butyl]amino]methylene]-2,2-dimethyl-1,3-dioxane-4,6-dione]	98	1.3	
CCCCCCN(CCCCCC)C(Nc1ccc(F)cc1)=C1C(=O)OC(C)(C)OC1=O [Compound 3, 5-[(Dihexylamino)[(4-fluorophenyl)amino]methylene]-2,2-dimethyl-1,3-dioxane-4,6-dione]		9	% Inhibition (50 μM): 77%
CC(C)CCc1ccc(CN(C(Nc2ccc(N(C)C)cc2)=C2C(=O)OC(C)(C)OC2=O)C(CC(C)C)CC(C)C)cc1 [Compound 73, 5-[[[4-(Dimethylamino)phenyl]amino][[[4-(3-methylbutyl)phenyl]methyl][3-methyl-1-(2-methylpropyl)butyl]amino]methylene]-2,2-dimethyl-1,3-dioxane-4,6-dione]	97	1.3	
